One assay concerns the target Carbonic anhydrase 1 (Homo sapiens, UniProt P00915). Kind of assay: Inhibition of human carbonic anhydrase 1-catalyzed CO2 hydration activity by stopped flow assay.
The target in the next assay is Carbonic anhydrase 9 (Homo sapiens, UniProt Q16790).

Among the data in ChEMBL document CHEMBL1833885 (Bioorg Med Chem Lett, 2011) are Ki values, retold here.

Sequence of Carbonic anhydrase 1 (P00915 whole entry): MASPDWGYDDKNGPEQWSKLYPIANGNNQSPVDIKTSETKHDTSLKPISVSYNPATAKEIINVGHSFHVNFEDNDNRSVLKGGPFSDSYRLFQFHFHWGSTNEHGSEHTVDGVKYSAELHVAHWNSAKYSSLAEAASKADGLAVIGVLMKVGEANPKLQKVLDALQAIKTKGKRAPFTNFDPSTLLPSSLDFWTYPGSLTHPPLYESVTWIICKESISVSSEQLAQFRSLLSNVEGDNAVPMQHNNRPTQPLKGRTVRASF

For orientation: Ki means a measure of affinity in units of concentration, obtained from inhibition or displacement. Low values mean tighter binding, high ones weaker binding. Consider `Cc1ccc(C#Cc2ccccc2S(N)(=O)=O)cc1`, for which the values for the Ki on Carbonic anhydrase 1 and at Carbonic anhydrase 9 were 674 µM and 8.6 µM, respectively.
As for `COc1cccc(C#Cc2ccc(S(N)(=O)=O)cc2)c1`, the inhibition constant Ki on Carbonic anhydrase 9 turned out to be 0.0065 µM.
The same measure, in the same setting: for `NS(=O)(=O)c1ccc(C#Cc2cccc(F)c2)cc1` the value was 0.0058 µM.
Same read-out and setting: under `NS(=O)(=O)c1ccccc1C#Cc1ccccc1` stands 6.37 µM.
`NS(=O)(=O)c1ccccc1C#Cc1cccc(F)c1`: the results for the inhibition constant Ki on Carbonic anhydrase 1 and on Carbonic anhydrase 9 were 416 µM and 8.45 µM, respectively.
